Measurements published in US12545695B2, “Compounds for inhibiting neovascularization factors and use thereof” (UNIST (ULSAN NATIONAL INSTITUTE OF SCIENCE AND TECHNOLOGY), priority 2019, dated 2026).

What was measured:
TRAP-1 = experiment: Pull-down assay: client proteins SIRT3 and SDHB on GST-TRAP1 beads; type: binding; conditions: TRAP1-bead form with isolated mitochondria and drug, 4° C., 18 hours (FIG. 14)
Experimental: A pull-down assay was performed to confirm whether SMx competitively binds to SIRT3 and SDHB, which are known as client proteins of TRAP-1. TRAP1 protein in the GST fusion form was purified from bacteria cells and then bound to glutathione beads to make a TRAP1-bead form, and then the TRAP1-bead form was bound to the mitochondria isolated from mammalian cells (Thermo Scientific mitochondria isolation kit) with a drug at 4° C. for 18 hours. The cells were treated with SMx, and gamitrinib and PU-H71, which are previously developed N-terminal domain inhibitors of hsp90s, as the drugs, according to the concentrations shown in the drawing. […] This is strong evidence that SMx has the ability to bind to the middle domain of TRAP-1.

[1] = test system: oxygen-induced retinopathy mouse model; experiment: Oxygen-induced retinopathy mouse model, eye drop administration, retinal vascular analysis; type: in vivo, C57BL/6J mice; conditions: 1 mM in Liposic, eye drops 3 times a day, P12 to P17; versus control eye (FIG. 18, 19)
Source text: An oxygen-induced retinopathy mouse model was induced by rearing young C57BL/6J (Hyochang Science Inc.) mice aged 7 days after birth (P7) in a hyperoxic chamber (Coy Lab. in vivo chamber, 75% O2) for 5 days (P12), and then rearing the mice in a normoxic environment for 5 days (P17).
An oxygen-induced retinopathy mouse model was induced by rearing young C57BL/6J (Hyochang Science Inc.) mice aged 7 days after birth (P7) in a hyperoxic chamber (Coy Lab. in vivo chamber, 75% O2) for 5 days (P12), and then rearing the mice in a normoxic environment for 5 days (P17). SMx was diluted with Liposic (solvent) to 1 mM during P12 to P17 (5 days), which is the period of time when oxygen-induced retinopathy is induced from normal oxygen, and then administered by eye drops 3 times a day. The right eye was administered SMx, and the left eye was administered the control Liposic.
The oxygen-induced retinopathy mouse model was formed, and then perfused with 1×PBS and 4% PFA. After mouse eyes were extracted and fixed in 4% PFA, the retinas were isolated. The isolated retinas were washed with 1×PBS, and then blocked (0.1% BSA, 0.1% Triton X-100 in 1×PBS) at room temperature for 1 hour. The retinas were treated with a CD31 blood-vessel staining antibody (CD31, Cell Signaling, 1:100) overnight at 4° C. […] Blood vessel staining was analyzed under a fluorescence microscope (Zen, Axio Zoom). […]

COC1=C(OC)C(=O)C(CCCCCCCCCC[P+](c2ccccc2)(c2ccccc2)c2ccccc2)=C(C)C1=O [SMx]
significantly reduced: binding of the client protein (SIRT3, SDHB) to TRAP-1 (TRAP-1) | avascular area [1] | neovascular area [1]
